# According to ChEMBL document CHEMBL5360542, “Current development of β-carboline derived potential antimalarial scaffolds” (Eur J Med Chem, 2023):
# What was measured:
# Plasmodium falciparum [1] = experiment: Antimalarial activity against chloroquine-sensitive Plasmodium falciparum D10 transfected in human type A-positive RBC cells assessed reduction in parasite growth by measuring LDH activity incubated for 72 hrs by spectrophotometric analysis; assay type: functional, organism-based
# Plasmodium falciparum [2] = experiment: Antimalarial activity against chloroquine-resistant Plasmodium falciparum W2 transfected in human type A-positive RBC cells assessed reduction in parasite growth by measuring LDH activity incubated for 72 hrs by spectrophotometric analysis; assay type: functional, organism-based
# Plasmodium falciparum [3] = experiment: Antimalarial activity against Plasmodium falciparum NF54 infected in human erythrocytes assessed as reduction in parasitemia incubated for 48 hrs by [3H]-hypoxanthine based liquid scintillation counting analysis; settings: NF54, Erythrocyte
# Plasmodium falciparum [4] = experiment: Antimalarial activity against chloroquine-sensitive Plasmodium falciparum 3D7 assessed as reduction in parasite growth; assay type: functional, organism-based
# Plasmodium falciparum [5] = experiment: Antimalarial activity against chloroquine-resistant Plasmodium falciparum K1 assessed as reduction in parasite growth; assay type: functional, organism-based
# Plasmodium falciparum [6] = experiment: Antimalarial activity against chloroquine-resistant Plasmodium falciparum FcB1 assessed as inhibition of parasite growth; assay type: functional, organism-based
# Plasmodium berghei [7] = experiment: (§1) Antiplasmodial activity against Plasmodium berghei NK-65 infected in Swiss albino mouse assessed as reduction of parasitaemia at 100 mg/kg, po administered once daily for 4 days followed by artesunate addition at 50 mg/kg for 60 mins and measured 24 hrs post last dose by giemsa staining based analysis relative to control; assay type: functional; parameters: scale not given: the % may be the effect or the level left; settings: time 5 day
# Plasmodium falciparum [8] = experiment: Antimalarial activity against chloroquine-resistant Plasmodium falciparum RKL-9 transfected in A positive human erythrocytes assessed as reduction in schizont maturation incubated for 48 hrs by giemsa stain based assay; assay type: functional, organism-based; settings: RKL-9, 48 h
# Plasmodium berghei [9] = experiment: as §1, with “mean survival time” for “reduction”, “mouse” for “parasitaemia”, “analysis” for “analysis relative to control”; assay type: functional; settings: time 5 day
# [10] = Cytotoxicity against human dermal fibroblast cultured as 2D cells assessed as inhibition of cell growth incubated for 48 hrs by MTT assay; assay type: toxicity, cell-based; settings: human dermal fibroblasts cultured as 2D cells
# Plasmodium falciparum [11] = experiment: Antimalarial activity against chloroquine-sensitive Plasmodium falciparum 3D7 transfected in A positive human erythrocytes assessed as reduction in schizont maturation incubated for 48 hrs by giemsa stain based assay; assay type: functional, organism-based; settings: 3D7, 48 h
# [12] = Selectivity index, ratio of IC50 for chloroquine-resistant Plasmodium falciparum RKL-9 transfected in A positive human erythrocytes to IC50 for chloroquine-sensitive Plasmodium falciparum 3D7 transfected in A positive human erythrocytes; assay type: functional
# Plasmodium falciparum [13] = experiment: Antiplasmodial activity against multi-resistant Plasmodium falciparum W2 infected in erythrocytes assessed as inhibition of parasite growth incubated for 48 hrs by flow cytometry; assay type: functional, organism-based; settings: W2, Erythrocyte
# Plasmodium falciparum [14] = experiment: Antimalarial activity against chloroquine-sensitive Plasmodium falciparum […] assessed as reduction in parasite growth; assay type: functional, organism-based
# Plasmodium falciparum [15] = experiment: Antimalarial activity against chloroquine-resistant Plasmodium falciparum K1; assay type: functional, organism-based
# Plasmodium falciparum [16] = experiment: Antimalarial activity against artemisinin-sensitive parental Plasmodium falciparum 3D7 infected in O positive erythrocytes assessed as reduction in parasite growth incubated for 48 hrs by giemsa staining based assay; assay type: functional, organism-based; settings: 3D7, Erythrocyte
# Plasmodium falciparum [17] = experiment: Antimalarial activity against artemisinin-resistant Plasmodium falciparum R539T infected in O positive erythrocytes assessed as reduction in parasite growth incubated for 48 hrs by giemsa staining based assay; assay type: functional, organism-based; settings: Erythrocyte
# Plasmodium falciparum [18] = experiment: Antimalarial activity against chloroquine-resistant Plasmodium falciparum K1 assessed as reduction in parasite growth incubated for 72 hrs by ELISA; assay type: functional, organism-based; settings: K1, 72 h
# Plasmodium falciparum [19] = experiment: Antimalarial activity against Plasmodium falciparum INDO infected in erythrocytes assessed as inhibition of parasite growth incubated for 48 hrs by SYBR-Green I fluorescence-based assay; assay type: functional, organism-based; settings: Erythrocyte
# Plasmodium falciparum [20] = experiment: Antimalarial activity against Plasmodium falciparum 3D7 infected in erythrocytes assessed as inhibition of parasite growth incubated for 48 hrs by SYBR-Green I fluorescence-based assay; assay type: functional, organism-based; settings: 3D7, Erythrocyte
# Plasmodium falciparum [21] = experiment: Antimalarial activity against chloroquine-sensitive Plasmodium falciparum 3D7 by SYBR green assay; assay type: functional, organism-based
# [22] = Plasmodium falciparum, D10, Erythrocyte, 72 h
# [23] = Plasmodium falciparum, W2, Erythrocyte, 72 h
structure (smiles),measurement,setting,value
O=C(NC1CCCCC1)C1Cc2c([nH]c3ccccc23)C(c2ccc(Cl)cc2)N1 (racemic; form 2),IC50,Plasmodium falciparum [1]; rbc,12.5 µM
same,IC50,Plasmodium falciparum [2]; rbc,9.13 µM
C[C@H]1Cc2c([nH]c3cc(Cl)c(F)cc23)[C@@]2(N1)C(=O)Nc1ccc(Cl)cc12 [CIPARGAMIN],IC50,Plasmodium falciparum [3],0.0005 µM
COC(=O)c1cc2c3ccccc3n3c2c(n1)C(c1ccccc1)OC(C)=C3 (configuration not stated),IC50,Plasmodium falciparum [4],> 5 µM
same,IC50,Plasmodium falciparum [5],> 5 µM
C=CCC1OC(C)=Cn2c3ccccc3c3cc(C(=O)OC)nc1c32 (configuration not stated),IC50,Plasmodium falciparum [4],> 5 µM
same,IC50,Plasmodium falciparum [5],> 5 µM
c1ccc2c(CC3NCCc4c3[nH]c3ccccc43)c[nH]c2c1 (configuration not stated),IC50,Plasmodium falciparum [6],9.6 µM
COC(=O)[C@@H]1Cc2c([nH]c3ccccc23)[C@@H](c2ccc3c(c2)OCO3)N1,Activity,Plasmodium berghei [7],99.69%
same,IC50,Plasmodium falciparum [8],< 1 µg/mL
same,Survival,Plasmodium berghei [9],25.8 days
same,CC50 at 48 h,[10],> 640 µg/mL
same,IC50,Plasmodium falciparum [11],< 1 µg/mL
same,Selectivity Index,[12],>10
Fc1ccc(C2NCCc3c2[nH]c2ccccc32)cc1 (configuration not stated),IC50,Plasmodium falciparum [13],1.1 µM
Brc1ccc(C2NCCc3c2[nH]c2ccccc32)cc1 (configuration not stated),IC50,Plasmodium falciparum [13],6.9 µM
CC1NC(C(=O)N2CCCCC2)Cc2c1[nH]c1ccccc21 (configuration not stated),IC50,Plasmodium falciparum [1]; [22],13.2 µM
same,IC50,Plasmodium falciparum [2]; [23],9.6 µM
O=C(O)CCc1nccc2c1[nH]c1ccccc12,IC50,Plasmodium falciparum [14],0.0767 µg/mL
C/C=C/C(=O)N1CCc2c(n(C(=O)OC(C)(C)C)c3ccccc23)C1CC(=O)OCC (configuration not stated),IC50,Plasmodium falciparum [15],15 µM
CCC1NC(C(=O)NC23CC4CC(CC(C4)C2)C3)Cc2c1[nH]c1ccccc21 (configuration not stated),IC50,Plasmodium falciparum [1]; [22],9.73 µM
same,IC50,Plasmodium falciparum [2]; [23],11.4 µM
COc1ccc(C2NCCc3c2[nH]c2ccccc32)cc1OC (configuration not stated),IC50,Plasmodium falciparum [16],3.03 µM
same,IC50,Plasmodium falciparum [17],2.99 µM
COC(=O)c1cc2c3ccccc3n3c2c(n1)C(C1C=CCCC1)OC(C)=C3 (configuration not stated),IC50,Plasmodium falciparum [4],1.64 µM
same,IC50,Plasmodium falciparum [5],> 5 µM
O=C(O)c1cc2c([nH]c3ccccc32)c(-c2c[nH]c3ccccc23)n1,IC50,Plasmodium falciparum [6],> 31 µM
CC(C)(C)CC(C)(C)NC(=O)C1Cc2c([nH]c3ccccc23)C(c2ccc(Cl)cc2)N1 (configuration not stated),IC50,Plasmodium falciparum [1]; [22],8.41 µM
same,IC50,Plasmodium falciparum [2]; [23],6.41 µM
CCCCCCCC[C@@H]1N[C@@H](C(=O)NCCC(C)(C)C)Cc2c1[nH]c1ccccc21,IC50,Plasmodium falciparum [1]; [22],4.45 µM
same,IC50,Plasmodium falciparum [2]; [23],4 µM
COC(=O)c1cc2c([nH]c3ccccc32)c(C(=O)c2c[nH]c3ccccc23)n1,IC50,Plasmodium falciparum [6],23.3 µM
CN(C)c1ccc(C2NCCc3c2[nH]c2ccccc32)cc1 (configuration not stated),IC50,Plasmodium falciparum [13],3.9 µM
C=CCC1OC(C)=Cn2c3ccc(Cl)cc3c3cc(C(=O)OC)nc1c32 (configuration not stated),IC50,Plasmodium falciparum [4],> 5 µM
same,IC50,Plasmodium falciparum [5],> 5 µM
O=C(NCCCN1CCOCC1)C1Cc2c([nH]c3ccccc23)C(c2ccc(Cl)cc2)N1 (configuration not stated),IC50,Plasmodium falciparum [1]; [22],11.5 µM
same,IC50,Plasmodium falciparum [2]; [23],6.15 µM
CC(C)(C)OC(=O)n1c2c(c3ccccc31)CCN(C(=O)OCc1ccccc1)C2CCO (configuration not stated),IC50,Plasmodium falciparum [15],21.4 µM
COC(=O)c1cc2c3cc(Cl)ccc3n3c2c(n1)COC(C)=C3,IC50,Plasmodium falciparum [4],1.78 µM
same,IC50,Plasmodium falciparum [5],2.45 µM
C/C=C/C(=O)N1CCc2c([nH]c3ccccc23)C1CC(=O)OCC (configuration not stated),IC50,Plasmodium falciparum [18],13.8 µM
CCOC(=O)c1cc2c([nH]c3ccccc32)c(-c2ccc(N)cc2)n1,IC50,Plasmodium falciparum [19],39 µM
same,IC50,Plasmodium falciparum [20],37.7 µM
Clc1ccc(C2NCCc3c2[nH]c2ccccc32)cc1 (configuration not stated),IC50,Plasmodium falciparum [13],4.8 µM
CC(C)(C)CCNC(=O)C1Cc2c([nH]c3ccccc23)C(c2ccc(Cl)cc2)N1 (configuration not stated),IC50,Plasmodium falciparum [1]; [22],10.5 µM
same,IC50,Plasmodium falciparum [2]; [23],7.8 µM
C=C(CC1OC(C)=Cn2c3ccccc3c3cc(C(=O)OC)nc1c32)C(=O)OC (configuration not stated),IC50,Plasmodium falciparum [4],0.57 µM
same,IC50,Plasmodium falciparum [5],0.72 µM
CON(C)C(=O)CC1c2c(c3ccccc3n2C(=O)OC(C)(C)C)CCN1C(=O)OCc1ccccc1 (configuration not stated),IC50,Plasmodium falciparum [15],13.8 µM
COC(=O)c1cc2c3cc(Cl)ccc3n3c2c(n1)C(C/C=C(\C)CCC=C(C)C)OC(C)=C3 (configuration not stated),IC50,Plasmodium falciparum [4],1.55 µM
same,IC50,Plasmodium falciparum [5],> 5 µM
CCOC(=O)CC1c2c(c3ccccc3n2C(=O)OC(C)(C)C)CCN1C(=O)OCc1ccccc1 (configuration not stated),IC50,Plasmodium falciparum [18],15.5 µM
COc1ccc2[nH]cc(C(=O)c3nccc4c3[nH]c3ccc(OC)cc34)c2c1,IC50,Plasmodium falciparum [6],1 µM
CCOC(=O)c1cc2c([nH]c3ccccc32)c(-c2ccc(NC(=S)Nc3ccc(OC)cc3)cc2)n1,IC50,Plasmodium falciparum [19],1.8 µM
same,IC50,Plasmodium falciparum [20],1.6 µM
COC(=O)c1cc2c3ccccc3n3c2c(n1)C(CC=C(C)C)OC(C)=C3 (configuration not stated),IC50,Plasmodium falciparum [4],> 5 µM
same,IC50,Plasmodium falciparum [5],> 5 µM
CCOC(=O)c1cc2c([nH]c3ccccc32)c(-c2ccc(NC(=S)Nc3ccc(OC(F)(F)F)cc3)cc2)n1,IC50,Plasmodium falciparum [19],0.39 µM
same,IC50,Plasmodium falciparum [20],18.7 µM
O=[N+]([O-])c1ccc(C2NCCc3c2[nH]c2ccccc32)cc1 (configuration not stated),IC50,Plasmodium falciparum [13],1.7 µM
O=C(NC1CCCCC1)C1Cc2c([nH]c3ccccc23)C(c2ccc(Cl)cc2)N1 (racemic; form 1),IC50,Plasmodium falciparum [1]; [22],16.1 µM
same,IC50,Plasmodium falciparum [2]; [23],13.5 µM
O=C(c1c[nH]c2ccc(O)cc12)c1nccc2c1[nH]c1ccc(O[C@@H]3O[C@H](CO)[C@@H](O)[C@H](O)[C@H]3O)cc12,IC50,Plasmodium falciparum [21],5 µM
CC#CCN1CCc2c([nH]c3ccccc23)C1CC(=O)OCC (configuration not stated),IC50,Plasmodium falciparum [18],13.8 µM
COC(=O)C1Cc2c([nH]c3ccccc23)C(Cc2c[nH]c3ccccc23)N1 (configuration not stated),IC50,Plasmodium falciparum [6],17.2 µM
O=C(c1c[nH]c2ccc(O)cc12)c1nccc2c1[nH]c1ccc(O)cc12 [HYRTIOSULAWESINE],IC50,Plasmodium falciparum [6],1.3 µM
N#Cc1ccc(C2NCCc3c2[nH]c2ccccc32)cc1 (configuration not stated),IC50,Plasmodium falciparum [13],1.1 µM
CC(C)(C)OC(=O)n1cc(CC2NCCc3c2[nH]c2ccccc32)c2ccccc21 (configuration not stated),IC50,Plasmodium falciparum [6],8.5 µM
CCOC(=O)c1cc2c([nH]c3ccccc32)c(-c2ccc(/N=C(/Nc3ccccc3)NC3CC3)cc2)n1,IC50,Plasmodium falciparum [19],0.6 µM
same,IC50,Plasmodium falciparum [20],1 µM
CCOC(=O)c1cc2c([nH]c3ccccc32)c(-c2ccc(NC(=O)C(C)(C)C)cc2)n1,IC50,Plasmodium falciparum [19],2.38 µM
same,IC50,Plasmodium falciparum [20],3.5 µM
COc1ccc(C2NCCc3c2[nH]c2ccccc32)cc1 (configuration not stated),IC50,Plasmodium falciparum [13],0.7 µM
CC#CCN1CCc2c(n(C(=O)OC(C)(C)C)c3ccccc23)C1CC(=O)OCC (configuration not stated),IC50,Plasmodium falciparum [15],29.8 µM
CCOC(=O)CC1c2[nH]c3ccccc3c2CCN1S(=O)(=O)c1ccc(C)cc1 (configuration not stated),IC50,Plasmodium falciparum [18],13.8 µM
Clc1cc(Cl)c(Cl)c(C2NCCc3c2[nH]c2ccccc32)c1 (configuration not stated),IC50,Plasmodium falciparum [16],3.43 µM
same,IC50,Plasmodium falciparum [17],4.89 µM
